Measured values as given in patent publication US4482568A, “Inhibition of alcohol metabolism by tetramethylene sulfoxides” (University of Iowa Research Foundation, priority 1983, dated 1984).
Read-outs that look alike come from different tables or passages of the source.

What was measured:
[1] = target: T1, horse liver alcohol dehydrogenase (Equus caballus, UniProt P00327); experiment: Inhibition of horse liver alcohol dehydrogenase in vitro (Kii against varied ethanol); assay type: biochemical
T1 construct: Crystallized horse liver alcohol dehydrogenase; from tissue; host or cells: horse liver
T1 sequence (P00327 2-375 limits assumed): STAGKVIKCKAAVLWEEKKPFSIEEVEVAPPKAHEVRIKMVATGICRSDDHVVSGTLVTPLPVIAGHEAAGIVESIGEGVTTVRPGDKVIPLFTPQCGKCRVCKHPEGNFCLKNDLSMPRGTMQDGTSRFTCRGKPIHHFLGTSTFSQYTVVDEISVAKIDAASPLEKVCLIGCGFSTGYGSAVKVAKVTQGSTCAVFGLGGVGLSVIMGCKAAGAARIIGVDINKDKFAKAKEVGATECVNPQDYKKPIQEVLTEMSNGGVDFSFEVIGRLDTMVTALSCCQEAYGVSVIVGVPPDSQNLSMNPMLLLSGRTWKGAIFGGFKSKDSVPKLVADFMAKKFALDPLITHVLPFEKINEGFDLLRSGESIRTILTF
Description: (§1) ^a The Kii values (intercept) inhibition constants in micromolar
(§2) units as determined against varied concentrations of ethanol as substrate
(§3) Purified or partially purified enzyme was tested under approximately
(§4) physiological conditions, pH 7.3 and 37° C., except that the
(§5) crystallized horse enzyme was tested at pH 7 and 25° C.
(§6) Crystallized horse liver alcohol dehydrogenase was freed from endogenous ethanol by filtration though a column of Sephadex G-50. Inhibition studies were carried out with varied concentrations of ethanol (0.4-2 mM) at 1 mM NAD+ in 46 mM sodium phosphate buffer, pH 7, at 25° C. In each experiment, at least three different concentrations of inhibitor were tested and 32 initial velocities were determined (as in FIGS. 2A and 3A of the Journal article). Data for noncompetitive inhibition were fitted to the equation v=VS/[Km (1+[…])+S(1+I/Kii)], whereas the equation for uncompetitive inhibition has no Kis term, and competitive inhibition has no Kii term. The equation giving the lowest standard errors and residual variance was concluded to give the best fit. Rat liver alcohol dehydrogenase was partially purified, and inhibition studies were performed as with the horse liver enzyme, except that the buffer was 83 mM potassium phosphate, pH 7.3, and 40 mM KCl, total ionic strength=0.25, and the temperature was 37.8° C. The concentration of NAD was 0.5 mM. These conditions are thought to resemble those found in vivo. The concentrations of ethanol were 0.4, 0.6, 1, and 2 mM, and the inhibitors were varied between 0 and 0.6 mM.

[2] = target: Liver Alcohol Dehydrogenase (Monkey); experiment: Inhibition of monkey liver alcohol dehydrogenase in vitro (Kii against varied ethanol); assay type: biochemical; settings: purified or partially purified enzyme, pH 7.3, 37° C., ethanol varied as substrate
Description: as §1, §2, §3, §4, §5

[3] = target: T2, Rat liver alcohol dehydrogenase (Rattus norvegicus, UniProt P06757); experiment: Inhibition of rat liver alcohol dehydrogenase in vitro (Kii against varied ethanol); assay type: biochemical
T2 construct: Rat liver alcohol dehydrogenase was partially purified; from tissue; host or cells: rat liver
T2 sequence (P06757 2-376 limits assumed): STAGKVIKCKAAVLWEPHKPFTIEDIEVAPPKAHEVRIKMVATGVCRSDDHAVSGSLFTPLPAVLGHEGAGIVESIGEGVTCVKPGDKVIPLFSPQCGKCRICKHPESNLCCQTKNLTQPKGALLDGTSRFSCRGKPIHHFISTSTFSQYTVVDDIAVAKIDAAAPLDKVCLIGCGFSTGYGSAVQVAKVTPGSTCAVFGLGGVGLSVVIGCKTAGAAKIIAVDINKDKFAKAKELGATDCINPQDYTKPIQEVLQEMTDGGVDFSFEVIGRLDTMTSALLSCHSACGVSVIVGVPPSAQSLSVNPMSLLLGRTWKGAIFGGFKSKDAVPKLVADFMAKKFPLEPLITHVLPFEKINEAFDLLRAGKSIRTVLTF
Description: as §1, §2, §3, §4, §5, §6

[4] = system: ethanol metabolism; experiment: Ethanol (elimination rate) metabolism in rats; assay type: in vivo, male Sprague-Dawley rats; settings: for Ethanol (Elimination Rate) Metabolism In Rats, % Inhibition: 19.6 mmoles of ethanol/kg i.p. and 1 mmole/kg inhibitor, maximum obtainable about 85%
Description: ^b The Kii (intercept inhibition constant, micromoles/kg) was
determined with varied concentrations of inhibitor and ethanol by
determination of blood alohol concentrations. For a survey of inhibitory
potency, rats were given 19.6 mmoles of ethanol/kg body wt., i.p., and 1.
mmole of the inhibitor, and the percentage inhibition of ethanol
elimination was calculated with reference to an animal given no inhibitor
The maximum "inhibition" that can be obtained is about 85%, since some
ethanol is eliminated by excretion, rather than by oxidation by alcohol
^c The value was estimated from results from rats given 19.6 mmoles o
ethanol/kg and 0.1, 0.4, and 1.0 mmoles/kg of the inhibitor.
The precise experimental details for assembling the data shown in the above table are reported in our Journal of Medicinal Chemistry article, 1983, Vol. 26, No. 6, at page 921. The entire article is incorporated herein by reference. In particular, for the rat studies, inhibition of ethanol metabolism by the active compounds of this invention were studied in vitro in liver alcohol dehydrogenase from horses, monkeys and rats. The in vivo study of ethanol metabolism in rats, and in particular its inhibition was studied with male Sprague-Dawley rats, which were given intraperitoneal injections of active compounds (0.1 molar) in saline at doses of 0.0, 0.25 and 0.5 or 1.0 mmole/kg of body weight. Ten minutes later, ethanol was injected intraperitoneally at a dose of 19.6 mmoles/kg of body weight. Blood samples were taken at intervals, timed from the ethanol injection, and analyzed by gas chromatography.

[5] = system: ethanol metabolism; experiment: Blood alcohol concentration in rats after ethanol and inhibitor (FIG. 1); assay type: in vivo; settings: 19.6 mmol/kg ethanol, 1 mmol/kg inhibitor
Description: In order to compare dimethyl sulfoxide and its potential as an inhibitor with the compounds of this invention, rats were given dosages of 19.6 millimoles per kilogram of body weight of alcohol and/or injections of one millimole per kilogram of body weight of the inhibitors, either dimethyl sulfoxide, tetramethylene sulfoxide, 3-methyltetramethylene sulfoxide, or 3-butyltetramethylene sulfoxide. After injection, the alcohol concentration in the blood was measured. The drawing reports the alcohol concentration. The line designated by the numeral 12 represents ethanol without any inhibitor. The line designated by 11 represents ethanol with dimethyl sulfoxide. The line represented by the numeral 13 represents ethanol with tetramethylene sulfoxide.

[6] = system: isolated liver alcohol dehydrogenases; experiment: Inhibition of ethanol oxidation by isolated liver alcohol dehydrogenases (general statements); assay type: biochemical
Description: as §6

[7] = system: ethanol induced loss of righting reflex; settings: mice; Sharkawi 1979; cited from earlier work
[8] = system: alcohol dehydrogenases in the liver; settings: background, cited from earlier work
[9] = crystallized horse enzyme, pH 7, 25° C., ethanol varied as substrate, read-out: Liver Alcohol Dehydrogenase, In Vitro, Kii, Horse
[10] = partially purified enzyme, pH 7.3, 37° C., ethanol varied as substrate, read-out: Liver Alcohol Dehydrogenase, In Vitro, Kii, Rat

CCCCC1CC[S+]([O-])C1 (stereo not shown) [3-Butyltetramethylene sulfoxide, 3-butylthiolane-1-oxide]
Ki [1, 9]: 0.63 µM
Ki [2]: 2.2 µM
Ki [3, 10]: 1.5 µM
Ethanol (Elimination Rate) Metabolism In Rats, % Inhibition [4]: 76%
effectiveness as inhibitor of alcohol metabolism (blood alcohol concentration) [5]: far superior to even tetramethylene sulfoxide

CC1CC[S+]([O-])C1 (stereo not shown) [3-Methyltetramethylene sulfoxide, 3-Methylthiolane-1-oxide]
Ki [1, 9]: 7.5 µM
Ki [2]: 450 µM
Ki [3, 10]: 18 µM
Ethanol (Elimination Rate) Metabolism In Rats, % Inhibition [4]: 72%
Ethanol (Elimination Rate) Metabolism In Rats, Kii (estimated) ([4]; estimated from rats given 19.6 mmoles of ethanol/kg and 0.1, 0.4, and 1.0 mmoles/kg of inhibitor): 150 µmol/kg
effectiveness as inhibitor of alcohol metabolism (blood alcohol concentration) [5]: far superior to even tetramethylene sulfoxide

[O-][S+]1CCCC1 [Tetramethylene Sulfoxide, tetramethylene sulfoxide]
Ki [1]: 19 µM
Ki [2]: 1700 µM
Ki [3]: 200 µM
Ethanol (Elimination Rate) Metabolism In Rats, % Inhibition [4]: 63%
inhibition of ethanol metabolism in animals (in words) ([4]; animals/rats): effectively inhibit ethanol metabolism in animals
Ethanol (Elimination Rate) Metabolism In Rats, Kii ([4]; intercept inhibition constant, varied concentrations of inhibitor and ethanol, blood alcohol concentrations, i.p.): 340 µmol/kg
effectiveness as inhibitor of alcohol metabolism (blood alcohol concentration) [5]: far more effective
inhibition of ethanol oxidation by isolated liver alcohol dehydrogenases (in words) [6]: exceptionally potent inhibitors

C[S+](C)[O-] [dimethyl sulfoxide, reference compound]
inhibition constant with horse liver alcohol dehydrogenase ([1]; stated for comparison): four to five
effectiveness as inhibitor of alcohol metabolism (blood alcohol concentration) [5]: not effective as an inhibitor
effect on ethanol induced loss of righting reflex [7]: significantly "prolong the ethanol induced loss of righting reflex in mice"
inhibitory effect on alcohol metabolism ([8]; Sharkawi, Toxicology Letters 1979): some slight inhibitory effect

CCO [ethanol]
type of inhibition [8]: competitive inhibitor
effectiveness as inhibitor ([8]; ethanol as treatment for toxic alcohol ingestion): not a very effective inhibitor
